In US8895069B2, “Drug delivery system using hyaluronic acid-peptide conjugate micelle” (Postech Academy-Industry Foundation, priority 2011, dated 2014):
Ends that are not written are not given here.

Assays:
[1] = biological target: T1, binding between Flt1-Fc and VEGF165 (Homo sapiens, UniProt P17948); assay: Inhibition of binding between Flt1-Fc and VEGF165 (chemiluminescence ELISA)
T1 construct: purchased R&D Systems
Method: A VEGF165 solution (with a concentration in PBS of 0.5 μg/mL) (R&D System) was put into 96-black well-plate, and reacted overnight at 4° C. to give a VEGF165-coated well. After being washed with PBS, the well was blocked with a blocking buffer (which is a BSA solution with BSA(Sigma-Aldrich) dissolved therein at a concentration of 3 wt % in a PBS buffer solution at pH 7.4) and washed again with PBS (at room temperature for 2 hours). The solutions of the anti-Flt1 peptide (GGNQWFI) (SEQ ID NO: […]) (SEQ ED NO: 3) and 500 ng/mL of Flt1-Fc (R&D systems, Minneapolis, Minn.) in a solution of BSA(Sigma-Aldrich) as dissolved in PBS (pH 7.4) at 1 wt %, or the solution of the hyaluronic acid-peptide conjugate with a lower peptide content of Preparation Example 3 test group (HA-GGNQWFI) (as prepared by conjugating 20 peptides per one HA-TBA molecule) was added to the VEGF165-coated well, and incubated at room temperature for one hour. […] Then, after the well was washed with a PBS comprising 0.05 wt % of Tween 20 three times and washed with a PBS once, the amount of the conjugated Flt1-Fc was measured with BM chemiluminescence ELISA substrate system (Victor 3 luminometer, PerkinElmer, Mass.). […]
The luminescence value of the positive control group without being treated with anti-FR1 peptide was set to be 100% and other data were normalized.

[2] = Pharmacokinetics in the vitreous body after intravitreal injection; assay type: in vivo, Sprague Dawley (SD) male rats
Method: Three groups consisted of a hyaluronic acid (HA) test group, an anti-Flt1 peptide (GGNQWFI) (SEQ ID NO: 3) test group, and a test group of the hyaluronic acid-peptide conjugate with a lower peptide content as prepared from Preparation Example 3 (HA-GGNQWFI). The anti-Flt1 peptide sample and the hyaluronic acid-peptide conjugate sample were made to have an identical peptide concentration of 5 mg/ml. 10 μL of each sample solution was injected into the vitroeus body, which was sampled in 6 hours, 1 day, 3 days, 7 days, 10 days, and 14 days and stored at −20° C. until analysis. The concentration of the anti-Flt1 peptide in the vitreous body was measured with fluorescence analysis. Specifically, the vitreous body was disintegrated by using 200 μL of RIPA buffer, and then subjected to centrifugation under 14,000 g at 4° C. for 10 minutes to provide a supernatant solution. By using a spectrofluorometer (Cary Eclipse Fluorescence Spectrophotometer, Varian, Australia), the photoluminescence of each sample was measured at an excitation wave length of 280 nm and an emission wavelength of 350 nm. The vitreous body of the SD rat that was not treated at all was used as a blank control.

[3] = test system: methacholine airway hyper-responsiveness; assay: Methacholine airway hyper-responsiveness (Penh) in OVA/LPS asthma model; assay type: in vivo, BALB/c mice; conditions: 24 hours after the last allergen challenge, intranasal
Method: The biological activity of the hyaluronic acid-peptide conjugate with a lower peptide concentration (HA-GGNQWFI) in accordance with Preparation Example 3 was measured through the reaction to methacholine. Specifically, as to the airway hyper-responsiveness (AHR), the laboratory rat (in vivo) was made to keep exercising naturally without being put under anesthesia and the enhanced pause (Penh), the number reflecting the airway obstruction as represented by Mathematical Equation 1 was measured by using plethysmography. In this experimentation was used a non-invasive method wherein the measurement was conducted without correcting or putting the laboratory animal under anesthesia. Penh=[(Te/RT−1)×(PEF/PIF)] [Mathematical Equation 1]
In Mathematical Equation 1, Te represents an expiratory time (seconds), RT represents a relaxation time (seconds), PEF represents a peak expiratory flow […], and PIF represents a peak inspiratory flow (ml/s).
As the laboratory mouse, BALB/c mice (female, 6 week old, 5 per each group) were used. […]
The pulmonary function was measured on the 23th day by using the non-invasive whole body plethysmographs for the mouse that was not put under anesthesia. […] The aerosol was prepared by using an ultrasonic nebulizer and the laboratory mouse was exposed to methacholine for 3 minutes and then the Penh was measured for 5 minutes.

[4] = male, Sprague Dawley (SD), vitreous body, 50 µg, rat, single intravitreal 10 μL, peptide 5 mg/ml
[5] = rat, single intravitreal 10 μL, peptide 5 mg/ml

T1 sequence (P17948 with tags, fused parts or gaps isoform P17948-2 limits assumed): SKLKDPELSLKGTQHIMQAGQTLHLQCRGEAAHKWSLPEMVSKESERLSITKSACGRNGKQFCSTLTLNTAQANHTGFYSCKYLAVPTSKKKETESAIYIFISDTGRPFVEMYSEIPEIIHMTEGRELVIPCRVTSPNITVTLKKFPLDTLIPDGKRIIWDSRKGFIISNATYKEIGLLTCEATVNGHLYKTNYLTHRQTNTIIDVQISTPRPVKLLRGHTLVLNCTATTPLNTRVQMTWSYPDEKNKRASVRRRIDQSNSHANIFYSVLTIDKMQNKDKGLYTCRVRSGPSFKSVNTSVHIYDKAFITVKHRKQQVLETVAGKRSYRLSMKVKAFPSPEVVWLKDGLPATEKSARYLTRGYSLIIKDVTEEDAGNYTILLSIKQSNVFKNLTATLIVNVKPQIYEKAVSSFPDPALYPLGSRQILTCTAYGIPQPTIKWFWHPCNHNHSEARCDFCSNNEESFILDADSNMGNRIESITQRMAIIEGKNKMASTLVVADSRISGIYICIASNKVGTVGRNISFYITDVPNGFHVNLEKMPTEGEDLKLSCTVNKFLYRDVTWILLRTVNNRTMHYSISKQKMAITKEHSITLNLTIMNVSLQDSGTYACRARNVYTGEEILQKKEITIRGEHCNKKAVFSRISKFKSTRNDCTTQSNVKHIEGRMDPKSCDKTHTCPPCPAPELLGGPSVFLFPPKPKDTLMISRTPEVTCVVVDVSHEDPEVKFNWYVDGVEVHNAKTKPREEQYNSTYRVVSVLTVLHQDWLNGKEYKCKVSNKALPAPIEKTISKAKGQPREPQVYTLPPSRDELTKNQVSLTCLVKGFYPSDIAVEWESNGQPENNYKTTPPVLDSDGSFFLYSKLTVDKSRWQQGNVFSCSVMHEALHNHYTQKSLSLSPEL

inhibition of the bonding between VEGF165 and Flt1-Fc ([1]; at 200 nM) | Cmax [2, 4] [µg/mL] | Tmax [2, 4] [h] | inhibition of the bonding between VEGF165 and Flt1-Fc, up to ([1]; dose-dependent, 20-20000 nM peptide, positive control set to 100%) | Substance | time for which the concentration in the vitreous body was maintained above base line [2, 5] | methacholine airway hyper-responsiveness [3] | Cmax in the vitreous body [2, 5] [µg/mL] | Tmax in the vitreous body [2, 5] [h] | AUC / bioavailability (AUC/dose) in the vitreous body ([2]; same dose, compared with anti-Flt1 peptide)
failed to inhibit | 800 ± 700 | 24 | – | GGNQWFI [anti-Flt1 peptide, GGNQWFI] | < 10 days | inferior to the hyaluronic acid-peptide conjugate | – | – | –
– | – | – | about 32% | HA-GGNQWFI: hyaluronic acid (MW 100 kDa) conjugated with GGNQWFI, 20 peptides per one molecule of HA-TBA (also: conjugated to hyaluronic acid, about 20 peptides per HA) | at least 14 days | greatly reduced to a level similar to that of the normal control group | 1600 ± 600 | 6 | higher AUC than that of the anti-Flt1 peptide
